# Results taken from patent US12692269B2, “Therapeutic compounds” (Genentech, Inc., priority 2019, dated 2026).
# Experiments:
# Assay type in all cases: binding
# TEAD4 YAP50-100 = TEAD4 YAP50-100 (Homo sapiens, UniProt Q15561); assay: TEAD4-YAP HTRF (TR-FRET) protein-protein interaction assay; conditions: TEAD4, YAP peptide 50-100, HTRF; for EC50: read-out: TEAD4 YAP50-100 HTRF combined: EC50
# Method in brief: (§1)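 His-tagged TEAD YAP-binding domain (aa 217-447) pre-bound to Eu anti-His antibody, then incubated 30 min with compound before adding biotinylated YAP (aa 50-100) or TAZ (aa 13-57) peptide with streptavidin-XL665. After 60 min at room temperature, TR-FRET 665/615 nm ratio read; IC50/EC50 from four-parameter fit.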
# TEAD1 YAP50-100 = TEAD1 YAP50-100 (Homo sapiens, UniProt P28347); assay: TEAD1-YAP HTRF (TR-FRET) protein-protein interaction assay; conditions: TEAD1, YAP peptide 50-100, HTRF; for EC50: read-out: TEAD1 YAP50-100 HTRF combined: EC50
# Method in brief: as §1
# TEAD3 YAP50-100 = TEAD3 YAP50-100 (Homo sapiens, UniProt Q99594); assay: TEAD3-YAP HTRF (TR-FRET) protein-protein interaction assay; conditions: TEAD3, YAP peptide 50-100, HTRF; for EC50: read-out: TEAD3 YAP50-100 HTRF combined: EC50
# Method in brief: as §1
# [1] = biological target: TEAD4 TAZ (amino acids 13-57) (Homo sapiens, UniProt Q15561); assay: TEAD4-TAZ HTRF (TR-FRET) protein-protein interaction assay; conditions: for TEAD4 TAZ HTRF combined: Max % Inhibition: TEAD4, TAZ peptide; for EC50: TEAD4-TAZ HTRF, TR-FRET 665 nm/615 nm, read-out: TEAD4 TAZ HTRF combined: EC50
# Method in brief: as §1
# TEAD2 YAP50-100 = TEAD2 YAP50-100 (Homo sapiens, UniProt Q15562); assay: TEAD2-YAP HTRF (TR-FRET) protein-protein interaction assay; conditions: TEAD2, YAP peptide 50-100, HTRF; for EC50: read-out: TEAD2 YAP50-100 HTRF combined: EC50
# Method in brief: as §1
# [2] = biological target: TEAD3 TAZ (amino acids 13-57) (Homo sapiens, UniProt Q99594); assay: TEAD3-TAZ HTRF (TR-FRET) protein-protein interaction assay; conditions: for TEAD3 TAZ HTRF combined: Max % Inhibition: TEAD3, TAZ peptide; for EC50: TEAD3-TAZ HTRF, TR-FRET 665 nm/615 nm, read-out: TEAD3 TAZ HTRF combined: EC50
# Method in brief: as §1
# [3] = biological target: TEAD1 TAZ (amino acids 13-57) (Homo sapiens, UniProt P28347); assay: TEAD1-TAZ HTRF (TR-FRET) protein-protein interaction assay; conditions: for TEAD1 TAZ HTRF combined: Max % Inhibition: TEAD1, TAZ peptide; for EC50: TEAD1-TAZ HTRF, TR-FRET 665 nm/615 nm, read-out: TEAD1 TAZ HTRF combined: EC50
# Method in brief: as §1
# [4] = biological target: TEAD2 TAZ (amino acids 13-57) (Homo sapiens, UniProt Q15562); assay: TEAD2-TAZ HTRF (TR-FRET) protein-protein interaction assay; conditions: for TEAD2 TAZ HTRF combined: Max % Inhibition: TEAD2, TAZ peptide; for EC50: TEAD2-TAZ HTRF, TR-FRET 665 nm/615 nm, read-out: TEAD2 TAZ HTRF combined: EC50
# Method in brief: as §1
# TEAD4 YAP50-100, sequence (Q15561 217-434 limits assumed): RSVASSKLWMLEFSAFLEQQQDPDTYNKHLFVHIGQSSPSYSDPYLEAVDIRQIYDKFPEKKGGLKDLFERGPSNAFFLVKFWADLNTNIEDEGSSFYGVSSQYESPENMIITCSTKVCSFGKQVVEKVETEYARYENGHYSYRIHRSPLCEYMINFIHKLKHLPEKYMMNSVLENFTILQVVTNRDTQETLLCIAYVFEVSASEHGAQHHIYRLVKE
# TEAD4 TAZ (amino acids 13-57), sequence (Q15561 217-434 limits assumed): as above
# TEAD2 YAP50-100, sequence (Q15562 217-447): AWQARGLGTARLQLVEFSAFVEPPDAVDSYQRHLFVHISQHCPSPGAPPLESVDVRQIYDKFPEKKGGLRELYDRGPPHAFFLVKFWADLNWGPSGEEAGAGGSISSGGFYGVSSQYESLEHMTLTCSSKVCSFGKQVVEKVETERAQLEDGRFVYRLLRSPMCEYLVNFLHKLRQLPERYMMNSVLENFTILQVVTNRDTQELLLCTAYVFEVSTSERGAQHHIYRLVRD
# TEAD2 TAZ (amino acids 13-57), sequence (Q15562 217-447): as above
# TEAD1 TAZ (amino acids 13-57), sequence (P28347 167-426 limits assumed): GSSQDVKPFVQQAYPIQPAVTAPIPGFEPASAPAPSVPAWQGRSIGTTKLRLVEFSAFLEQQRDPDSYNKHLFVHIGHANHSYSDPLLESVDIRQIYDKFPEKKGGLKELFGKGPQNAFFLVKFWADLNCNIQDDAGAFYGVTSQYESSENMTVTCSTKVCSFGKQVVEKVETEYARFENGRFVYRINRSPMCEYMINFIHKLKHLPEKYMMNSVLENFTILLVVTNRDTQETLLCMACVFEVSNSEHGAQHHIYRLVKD
# TEAD1 YAP50-100, sequence (P28347 167-426 limits assumed): as above
# TEAD3 TAZ (amino acids 13-57), sequence (Q99594 173-435 limits assumed): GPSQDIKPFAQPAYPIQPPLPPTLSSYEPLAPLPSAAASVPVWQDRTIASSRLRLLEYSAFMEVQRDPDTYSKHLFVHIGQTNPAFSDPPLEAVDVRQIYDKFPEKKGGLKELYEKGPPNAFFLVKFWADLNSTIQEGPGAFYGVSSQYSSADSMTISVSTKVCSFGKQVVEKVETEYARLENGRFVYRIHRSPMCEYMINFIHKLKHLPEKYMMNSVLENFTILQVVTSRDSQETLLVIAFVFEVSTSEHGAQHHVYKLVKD
# TEAD3 YAP50-100, sequence (Q99594 173-435 limits assumed): as above
Compound,TEAD4 YAP50-100 HTRF combined: Max % Inhibition (TEAD4 YAP50-100) [%],EC50 (TEAD4 YAP50-100) [nM],TEAD1 YAP50-100 HTRF combined: Max % Inhibition (TEAD1 YAP50-100) [%],EC50 (TEAD1 YAP50-100) [nM],TEAD3 YAP50-100 HTRF combined: Max % Inhibition (TEAD3 YAP50-100) [%],EC50 (TEAD3 YAP50-100) [nM],TEAD4 TAZ HTRF combined: Max % Inhibition [1] [%],EC50 [1] [nM],TEAD2 YAP50-100 HTRF combined: Max % Inhibition (TEAD2 YAP50-100) [%],EC50 (TEAD2 YAP50-100) [nM],TEAD3 TAZ HTRF combined: Max % Inhibition [2] [%],EC50 [2] [nM],TEAD1 TAZ HTRF combined: Max % Inhibition [3] [%],EC50 [3] [nM],TEAD2 TAZ HTRF combined: Max % Inhibition [4] [%],EC50 [4] [nM]
"C[C@H]1[C@@H](CF)CN1C(=O)c1c(C(=O)N(C)C)nn2c(=O)cc(-c3ccc(C4CCCCC4)cc3)[nH]c12 [Compound 5, 5-(4-Cyclohexylphenyl)-3-((2S,3S)-3-(fluoromethyl)-2-methylazetidine-1-carbonyl)-N,N-dimethyl-7-oxo-4,7-dihydropyrazolo[1,5-a]pyrimidine-2-carboxamide]",56.0,250,73.0,80,75.5,130,41.0,170,83.0,10,66.5,140,62.0,70,78.5,10
"N#Cc1nccnc1-c1nn2c(=O)cc(-c3ccc(C4CCCCC4)cc3)[nH]c2c1C(=O)N1CC(CF)C1 [Compound 8, 3-(5-(4-Cyclohexylphenyl)-3-(3-(fluoromethyl)azetidine-1-carbonyl)-7-oxo-4,7-dihydropyrazolo[1,5-a]pyimidin-2-yl)pyrazine-2-carbonitrile]",45.5,470,77.0,80,69.5,110,44.5,370,51.0,20,61.0,120,71.0,110,54.0,20
"CC(C)c1ccnc(-c2nn3c(=O)cc(-c4ccc(C5CCCCC5)cc4)[nH]c3c2C(=O)N2CC(CF)C2)n1 [Compound 10, 5-(4-Cyclohexylphenyl)-3-(3-(fluoromethyl)azetidine-1-carbonyl)-2-(4-isopropylpyrimidin-2-yl)pyrazolo[1,5-a]pyrimidin-7(4H)-one]",60.5,670,77.0,60,70.5,120,62.0,540,67.0,10,61.5,140,72.0,60,65.0,10
"O=C(c1c(-c2nccc(C(F)(F)F)n2)nn2c(=O)cc(-c3ccc(C4CCCCC4)cc3)[nH]c12)N1CC(CF)C1 [Compound 11, 5-(4-Cyclohexylphenyl)-3-(3-(fluoromethyl)azetidine-1-carbonyl)-2-(4-(trifluoromethyl)pyrimidin-2-yl)pyrazolo[1,5-a]pyrimidin-7(4H)-one]",48.0,1050,74.0,70,68.5,120,48.5,860,63.5,20,61.0,120,69.0,70,63.0,20

# The next lines start with the values.
TEAD4 YAP50-100 HTRF combined: Max % Inhibition (TEAD4 YAP50-100) [%],EC50 (TEAD4 YAP50-100) [nM],TEAD1 YAP50-100 HTRF combined: Max % Inhibition (TEAD1 YAP50-100) [%],EC50 (TEAD1 YAP50-100) [nM],TEAD3 YAP50-100 HTRF combined: Max % Inhibition (TEAD3 YAP50-100) [%],EC50 (TEAD3 YAP50-100) [nM],TEAD4 TAZ HTRF combined: Max % Inhibition [1] [%],EC50 [1] [nM],TEAD2 YAP50-100 HTRF combined: Max % Inhibition (TEAD2 YAP50-100) [%],EC50 (TEAD2 YAP50-100) [nM],TEAD3 TAZ HTRF combined: Max % Inhibition [2] [%],EC50 [2] [nM],TEAD1 TAZ HTRF combined: Max % Inhibition [3] [%],EC50 [3] [nM],TEAD2 TAZ HTRF combined: Max % Inhibition [4] [%],EC50 [4] [nM],Compound
48.5,200,69.0,40,69.0,70,36.0,150,64.0,10,59.0,80,59.0,50,64.5,10,"CN(C)C(=O)c1nn2c(=O)cc(-c3ccc(C4CCCCC4)c(F)c3)[nH]c2c1C(=O)N1CC(CF)C1 [Compound 4, 5-(4-Cyclohexyl-3-fluorophenyl)-3-(3-(fluoromethyl)azetidine-1-carbonyl)-N,N-dimethyl-7-oxo-4,7-dihydropyrazolo[1,5-a]pyrimidine-2-carboxamide]"
17.0,19500,73.0,410,71.5,4950,14.0,35500,69.5,710,64.5,6000,70.5,520,67.5,710,"C[C@@H]1[C@H](CF)CN1C(=O)c1c(C(=O)N(C)C)nn2c(=O)cc(-c3ccc(C4CCCCC4)cc3)[nH]c12 [Compound 6, 5-(4-Cyclohexylphenyl)-3-((2R,3R)-3-(fluoromethyl)-2-methylazetidine-1-carbonyl)-N,N-dimethyl-7-oxo-4,7-dihydropyrazolo[1,5-a]pyrimidine-2-carboxamide]"
54.0,260,78.0,200,71.0,350,50.0,160,61.0,40,61.0,320,74.0,200,67.0,30,"O=C(c1c(-c2nccnc2C(F)(F)F)nn2c(=O)cc(-c3ccc(C4CCCCC4)cc3)[nH]c12)N1CC(CF)C1 [Compound 7, 5-(4-Cyclohexylphenyl)-3-(3-(fluoromethyl)azetidine-1-carbonyl)-2-(3-(trifluoromethyl)pyrazin-2-yl)pyrazolo[1,5-a]pyrimidin-7(4H)-one]"
52.0,30,71.0,30,62.0,80,56.0,30,62.0,10,52.5,90,69.5,40,63.0,10,"Cc1ccnc(-c2nn3c(=O)cc(-c4ccc(C5CCCCC5)cc4)[nH]c3c2C(=O)N2CC(CF)C2)n1 [Compound 9, 5-(4-Cyclohexylphenyl)-3-(3-(fluoromethyl)azetidine-1-carbonyl)-2-(4-methylpyrimidin-2-yl)pyrazolo[1,5-a]pyrimidin-7(4H)-one]"
